Measurements taken from patent US8802597B2, “Herbicidal pyrimidines” (E I du Pont de Nemours and Company, priority 2003, dated 2014).

Legend:
Test in all cases: Test A pre/postemergence
Format in all cases: in vivo
[1] = tested on: velvetleaf (Abutilon theophrasti)
Outline: (§1)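 Seeds in loam–sand blend received preemergence directed soil spray and, concurrently, postemergence application (plants 2–10 cm, 1–2-leaf stage) of compound in non-phytotoxic solvent with surfactant. After about ten days in greenhouse, injury rated visually versus untreated controls, 0 (no effect) to 100 (complete control).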

[2] = tested on: crabgrass (Digitaria sanguinalis)
Outline: as §1

[3] = tested on: morningglory (Ipomoea spp.)
Outline: as §1

[4] = tested on: giant foxtail (Setaria faberi)
Outline: as §1

[5] = tested on: redroot pigweed (Amaranthus retroflexus)
Outline: as §1

[6] = tested on: barnyardgrass (Echinochloa crus-galli)
Outline: as §1

[7] = Postemergence, 250 g ai/ha, 0 to 100 scale (0 no effect, 100 complete control)
[8] = Postemergence, 1000 g ai/ha, 0 to 100 scale (0 no effect, 100 complete control)
[9] = Preemergence, 250 g ai/ha, 0 to 100 scale where 0 is no effect and 100 is complete control, approximately ten days
[10] = Preemergence, 1000 g ai/ha, 0 to 100 scale (0 no effect, 100 complete control)
[11] = Postemergence, 125 g ai/ha, 0 to 100 scale (0 no effect, 100 complete control)
[12] = Postemergence, 500 g ai/ha, 0 to 100 scale (0 no effect, 100 complete control)
[13] = Preemergence, 125 g ai/ha, 0 to 100 scale where 0 is no effect and 100 is complete control, approximately ten days
[14] = Preemergence, 500 g ai/ha, 0 to 100 scale where 0 is no effect and 100 is complete control, approximately ten days

COC(=O)c1nc(-c2ccc(F)cc2)nc(N)c1Cl [Compound 43]
Plant response rating, Velvetleaf [1, 7]: 50 | Plant response rating, Velvetleaf [1, 8]: 50 | Plant response rating, Velvetleaf [1, 9]: 0 | Plant response rating, Velvetleaf [1, 10]: 20 | Plant response rating, Crabgrass [2, 7]: 10 | Plant response rating, Crabgrass [2, 8]: 30 | Plant response rating, Crabgrass [2, 9]: 0 | Plant response rating, Crabgrass [2, 10]: 10 | Plant response rating, Morningglory [3, 7]: 20 | Plant response rating, Morningglory [3, 8]: 45 | Plant response rating, Morningglory [3, 9]: 0 | Plant response rating, Morningglory [3, 10]: 45 | Plant response rating, Foxtail, Giant [4, 7]: 10 | Plant response rating, Foxtail, Giant [4, 8]: 10 | Plant response rating, Foxtail, Giant [4, 9]: 0 | Plant response rating, Foxtail, Giant [4, 10]: 10 | Plant response rating, Pigweed [5, 7]: 60 | Plant response rating, Pigweed [5, 8]: 85 | Plant response rating, Pigweed [5, 9]: 0 | Plant response rating, Pigweed [5, 10]: 75 | Plant response rating, Barnyardgrass [6, 7]: 10 | Plant response rating, Barnyardgrass [6, 8]: 20 | Plant response rating, Barnyardgrass [6, 9]: 0 | Plant response rating, Barnyardgrass [6, 10]: 10

Nc1nc(C2CC2)nc(C(=O)Oc2ccc(Cl)cc2)c1Cl [Compound 145]
Plant response rating, Velvetleaf [1, 11]: 75 | Plant response rating, Velvetleaf [1, 12]: 95 | Plant response rating, Velvetleaf [1, 13]: 70 | Plant response rating, Velvetleaf [1, 14]: 85 | Plant response rating, Crabgrass [2, 11]: 5 | Plant response rating, Crabgrass [2, 12]: 30 | Plant response rating, Crabgrass [2, 13]: 65 | Plant response rating, Crabgrass [2, 14]: 80 | Plant response rating, Morningglory [3, 11]: 80 | Plant response rating, Morningglory [3, 12]: 95 | Plant response rating, Morningglory [3, 13]: 75 | Plant response rating, Morningglory [3, 14]: 100 | Plant response rating, Foxtail, Giant [4, 11]: 20 | Plant response rating, Foxtail, Giant [4, 12]: 70 | Plant response rating, Foxtail, Giant [4, 13]: 0 | Plant response rating, Foxtail, Giant [4, 14]: 60 | Plant response rating, Pigweed [5, 11]: 80 | Plant response rating, Pigweed [5, 12]: 90 | Plant response rating, Pigweed [5, 13]: 65 | Plant response rating, Pigweed [5, 14]: 85 | Plant response rating, Barnyardgrass [6, 11]: 30 | Plant response rating, Barnyardgrass [6, 12]: 60 | Plant response rating, Barnyardgrass [6, 13]: 30 | Plant response rating, Barnyardgrass [6, 14]: 75

CCOC(=O)c1nc(-c2ccccc2F)nc(N)c1Cl [Compound 106]
Plant response rating, Velvetleaf [1, 11]: 25 | Plant response rating, Velvetleaf [1, 12]: 55 | Plant response rating, Velvetleaf [1, 13]: 5 | Plant response rating, Velvetleaf [1, 14]: 30 | Plant response rating, Crabgrass [2, 11]: 0 | Plant response rating, Crabgrass [2, 12]: 0 | Plant response rating, Crabgrass [2, 13]: 0 | Plant response rating, Crabgrass [2, 14]: 0 | Plant response rating, Morningglory [3, 11]: 20 | Plant response rating, Morningglory [3, 12]: 35 | Plant response rating, Morningglory [3, 13]: 0 | Plant response rating, Morningglory [3, 14]: 0 | Plant response rating, Foxtail, Giant [4, 11]: 0 | Plant response rating, Foxtail, Giant [4, 12]: 0 | Plant response rating, Foxtail, Giant [4, 13]: 0 | Plant response rating, Foxtail, Giant [4, 14]: 0 | Plant response rating, Pigweed [5, 11]: 15 | Plant response rating, Pigweed [5, 12]: 70 | Plant response rating, Pigweed [5, 13]: 0 | Plant response rating, Pigweed [5, 14]: 30 | Plant response rating, Barnyardgrass [6, 11]: 0 | Plant response rating, Barnyardgrass [6, 12]: 5 | Plant response rating, Barnyardgrass [6, 13]: 0 | Plant response rating, Barnyardgrass [6, 14]: 5
